Reference: US20230167118A1, “DEGRADATION OF BRUTON'S TYROSINE KINASE (BTK) BY CONJUGATION OF BTK INIDBITORS WITH E3 LIGASE LIGAND AND METHODS OF USE” (BEIGENE, LTD., priority 2020, published 2023)

How the values were obtained:
BTK = biological target: T1, BTK (Homo sapiens, UniProt Q06187); experiment: Cell Degradation: BTK degradation in TMD-8 cells, HTRF assay; type: cell-based; settings: 6 h treatment, IC50 (DC50) of BTK degradation
T1 construct: High control=Cell group with added DMSO and without compound, indicating microplate readings without BTK degradation; endogenous in cells; host or cells: TMD-8 cells
Summary of the method: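 BTK levels read by HTRF (665 vs 620 nm) in lysates of TMD-8 cells after 6 h compound exposure (eight doses, 6-fold steps, 0.2% DMSO). Percent degradation relative to controls; four-parameter curve fitting gave DC50, with Dmax the top degradation.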

HEK-293 cells = experiment: HEK-293 Cytotoxicity Assay (CellTiter-Glo); type: cell-based; settings: Homo sapiens, HEK293, 72 h incubation, CellTiter-Glo luminescence
Summary of the method: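 Four-parameter fit of % inhibition gives IC50, from CellTiter-Glo luminescent viability read-out. Cells exposed for 72 h to an 8-point, 4-fold series at 0.2% DMSO.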

T1 sequence (Q06187 whole entry): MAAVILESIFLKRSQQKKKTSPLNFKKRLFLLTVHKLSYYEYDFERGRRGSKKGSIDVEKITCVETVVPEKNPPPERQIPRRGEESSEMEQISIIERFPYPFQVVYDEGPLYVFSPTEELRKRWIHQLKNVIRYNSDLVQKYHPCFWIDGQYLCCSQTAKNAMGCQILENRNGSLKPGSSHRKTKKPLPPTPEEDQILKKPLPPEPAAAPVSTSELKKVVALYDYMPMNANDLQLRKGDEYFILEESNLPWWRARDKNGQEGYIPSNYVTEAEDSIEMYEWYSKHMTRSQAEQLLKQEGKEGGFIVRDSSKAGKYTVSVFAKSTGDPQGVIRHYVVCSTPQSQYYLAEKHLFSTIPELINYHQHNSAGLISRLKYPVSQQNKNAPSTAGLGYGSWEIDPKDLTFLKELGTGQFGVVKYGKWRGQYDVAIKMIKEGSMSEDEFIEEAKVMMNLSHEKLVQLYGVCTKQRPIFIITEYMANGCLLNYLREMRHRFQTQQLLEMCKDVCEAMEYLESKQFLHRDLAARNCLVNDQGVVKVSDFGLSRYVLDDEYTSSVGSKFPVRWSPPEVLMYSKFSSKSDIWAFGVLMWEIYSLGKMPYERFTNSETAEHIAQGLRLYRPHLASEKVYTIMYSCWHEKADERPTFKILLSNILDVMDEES

| SMILES | DC50 (BTK) | IC50 (HEK-293 cells) |
| --- | --- | --- |
| Cc1cc(-c2ncnc3[nH]c(-c4ccc(N5CCN(CC6CCN(c7ccc(N8CCC(=O)NC8=O)cc7)CC6)C[C@@H]5C)nc4)cc23)ccc1[C@@H](C)NC(=O)c1nc(C(C)(C)C)no1 [Example 106, 3-(tert-butyl)-N-((R)-1-(4-(6-(6-((S)-4-((1-(4-(2,4-dioxotetrahydropyrimidin-1(2H)-yl)phenyl)piperidin-4-yl)methyl)-2-methylpiperazin-1-yl)pyridin-3-yl)-7H-pyrrolo[2,3-d]pyrimidin-4-yl)-2-methylphenyl)ethyl)-1,2,4-oxadiazole-5-carboxamide] | 4.6 nM | > 10000 nM |
| Cc1cc(-c2ncnc3[nH]c(-c4ccc(N5CCN(CC6CCN(c7ccc(N8CCC(=O)NC8=O)cc7)CC6)CC5)cc4)cc23)c(F)cc1[C@@H](C)NC(=O)c1noc(C(C)(C)C)n1 [Example 107, (R)-5-(tert-butyl)-N-(1-(4-(6-(4-(4-((1-(4-(2,4-dioxotetrahydropyrimidin-1(2H)-yl)phenyl)piperidin-4-yl)methyl)piperazin-1-yl)phenyl)-7H-pyrrolo[2,3-d]pyrimidin-4-yl)-5-fluoro-2-methylphenyl)ethyl)-1 2,4-oxadiazole-3-carboxamide] | 1.7 nM | > 10000 nM |
| C[C@@H](NC(=O)c1noc(C(C)(C)C)n1)c1ccc(-c2ncnc3[nH]c(-c4ccc(N5CCN(CC6CCN(c7ccc(N8CCC(=O)NC8=O)cc7)CC6)CC5)cn4)cc23)cc1F [Example 108, (R)-5-(tert-butyl)-N-(1-(4-(6-(5-(4-((1-(4-(2,4-dioxotetrahydropyrimidin-1(2H)-yl)phenyl)piperidin-4-yl)methyl)piperazin-1-yl)pyridin-2-yl)-7H-pyrrolo[2,3-d]pyrimidin-4-yl)-2-fluorophenyl)ethyl)-1,2,4-oxadiazole-3-carboxamide] | 0.35 nM | > 10000 nM |
| CC(C)(C)c1noc(C(=O)NCc2ccc(-c3ncnc4[nH]c(-c5ccc(N6CCN(CC7CCN(c8ccc(N9CCC(=O)NC9=O)cc8)CC7)CC6)cc5)cc34)cc2CO)n1 [Example 109, 3-(tert-butyl)-N-(4-(6-(4-(4-((1-(4-(2,4-dioxotetrahydropyrimidin-1(2H)-yl)phenyl)piperidin-4-yl)methyl)piperazin-1-yl)phenyl)-7H-pyrrolo[2,3-d]pyrimidin-4-yl)-2-(hydroxymethyl)benzyl)-1,2,4-oxadiazole-5-carboxamide] | 0.72 nM | > 10000 nM |
| Cc1cc(-c2ncnc3[nH]c(-c4ccc(N5CCN(CC6CCN(c7ccc(N8CCC(=O)N(C)C8=O)cc7)CC6)CC5)cn4)cc23)ccc1[C@@H](C)NC(=O)c1nc(C(C)(C)C)no1 [Example 110, (R)-3-(tert-butyl)-N-(1-(2-methyl-4-(6-(5-(4-((1-(4-(3-methyl-2,4-dioxotetrahydropyrimidin-1(2H)-yl)phenyl)piperidin-4-yl)methyl)piperazin-1-yl)pyridin-2-yl)-7H-pyrrolo[2,3-d]pyrimidin-4-yl)phenyl)ethyl)-1,2,4-oxadiazole-5-carboxamide] | > 2000 nM | > 10000 nM |
| Cc1cc(-c2ncnc3[nH]c(-c4ccc(N5CCN(CC6CCN(c7ccc(N8CCC(=O)NC8=O)c(F)c7)CC6)CC5)cc4)cc23)ccc1[C@@H](C)NC(=O)c1nc(C(C)(C)C)no1 [Example 111, (R)-3-(tert-butyl)-N-(1-(4-(6-(4-(4-((1-(4-(2,4-dioxotetrahydropyrimidin-1(2H)-yl)-3-fluorophenyl)piperidin-4-yl)methyl)piperazin-1-yl)phenyl)-7H-pyrrolo[2,3-d]pyrimidin-4-yl)-2-methylpheyl)ethyl)-1,2,4-oxadiazole-5-carboxamide] | 2.3 nM | > 10000 nM |
| Cc1cc(-c2ncnc3[nH]c(-c4ccc(N5CCN(CC6CCN(c7ccc(N8CCC(=O)NC8=O)c(C)c7)CC6)CC5)c(C)c4)nc23)ccc1[C@@H](C)NC(=O)c1nc(C(C)(C)C)no1 [Example 112, (R)-3-(tert-butyl)-N-(1-(4-(8-(4-(4-((1-(4-(2,4-dioxotetrahydropyrimidin-1(2H)-yl)-3-methylphenyl)piperidin-4-yl)methyl)piperazin-1-yl)-3-methylphenyl)-9H-purin-6-yl)-2-methylphenyl)ethyl)-1,2,4-oxadiazole-5-carboxamide] | 0.76 nM | > 10000 nM |
| COc1cc(-c2nc3c(-c4ccc([C@@H](C)NC(=O)c5nc(C(C)(C)C)no5)c(C)c4)ncnc3[nH]2)ccc1N1CCN(CC2CCN(c3ccc(N4CCC(=O)NC4=O)c(C)c3)CC2)CC1 [Example 113, (R)-3-(tert-butyl)-N-(1-(4-(8-(4-(4-((1-(4-(2,4-dioxotetrahydropyrimidin-1(2H)-yl)-3-methylphenyl)piperidin-4-yl)methyl)piperazin-1-yl)-3-methoxyphenyl)-9H-purin-6-yl)-2-methylphenyl)ethyl)-1,2,4-oxadiazole-5-carboxamide] | 0.97 nM | > 10000 nM |
| Cc1cc(N2CCN(CC3CCN(c4ccc(N5CCC(=O)NC5=O)c(C)c4)CC3)CC2)ccc1-c1nc2c(-c3ccc([C@@H](C)NC(=O)c4nc(C(C)(C)C)no4)c(C)c3)ncnc2[nH]1 [Example 114, (R)-3-(tert-butyl)-N-(1-(4-(8-(4-(4-((1-(4-(2,4-dioxotetrahydropyrimidin-1(2H)-yl)-3-methylphenyl)piperidin-4-yl)methyl)piperazin-1-yl)-2-methylphenyl)-9H-purin-6-yl)-2-methylphenyl)ethyl)-1,2,4-oxadiazole-5-carboxamide] | 1.68 nM | > 10000 nM |
| Cc1c([C@@H](C)NC(=O)c2noc(C(C)(C)C)n2)ccc(-c2ncnc3[nH]c(-c4ccc(N5CCN(CC6CCN(c7ccc(N8CCC(=O)NC8=O)cc7)CC6)CC5)cc4)cc23)c1F [Example 115, (R)-5-(tert-butyl)-N-(1-(4-(6-(4-(4-((1-(4-(2,4-dioxotetrahydropyrimidin-1(2H)-yl)phenyl)piperidin-4-yl)methyl)piperazin-1-yl)phenyl)-7H-pyrrolo[2,3-d]pyrimidin-4-yl)-3-fluoro-2-methylphenyl)ethyl)-1,2,4-oxadiazole-3-carboxamide] | 1.83 nM | > 10000 nM |
| Cc1cc(-c2ncnc3[nH]c(-c4cccc(N5CCN(CC6CCN(c7ccc(N8CCC(=O)NC8=O)cc7)CC6)CC5)c4)cc23)ccc1[C@@H](C)NC(=O)c1nc(C(C)(C)C)no1 [Example 116, (R)-3-(tert-butyl)-N-(1-(4-(6-(3-(4-((1-(4-(2,4-dioxotetrahydropyrimidin-1(2H)-yl)phenyl)piperidin-4-yl)methyl)piperazin-1-yl)phenyl)-7H-pyrrolo[2,3-d]pyrimidin-4-yl)-2-methylphenyl)ethyl)-1,2,4-oxadiazole-5-carboxamide] | 2.28 nM | > 10000 nM |
| Cc1cc(-c2ncnc3[nH]c(-c4ccc(N5CCN(CC6CCN(c7ccc(N8CCC(=O)NC8=O)cc7)CC6)CC5)nc4)cc23)ccc1[C@@H](C)NC(=O)c1cc(C(C)(C)C)on1 [Example 117, (R)-5-(tert-butyl)-N-(1-(4-(6-(6-(4-((1-(4-(2,4-dioxotetrahydropyrimidin-1(2H)-yl)phenyl)piperidin-4-yl)methyl)piperazin-1-yl)pyridin-3-yl)-7H-pyrrolo[2,3-d]pyrimidin-4-yl)-2-methylphenyl)ethyl)isoxazole-3-carboxamide] | 3.72 nM | > 10000 nM |
| C[C@@H](NC(=O)c1noc(C(C)(C)C)n1)c1ccc(-c2ncnc3[nH]c(-c4ccc(N5CCN(CC6CCN(c7ccc(N8CCC(=O)NC8=O)cc7)CC6)CC5)cc4)cc23)cc1CO [Example 118, (R)-5-(tert-butyl)-N-(1-(4-(6-(4-(4-((1-(4-(2,4-dioxotetrahydropyrimidin-1(2H)-yl)phenyl)piperidin-4-yl)methyl)piperazin-1-yl)phenyl)-7H-pyrrolo[2,3-d]pyrimidin-4-yl)-2-(hydroxymethyl)phenyl)ethyl)-1,2,4-oxadiazole-3-carboxamide] | 0.5 nM | > 10000 nM |
| Cc1cc(-c2ncnc3[nH]c(-c4ccc(N5CCN(CC6CCN(c7cccc(N8CCC(=O)NC8=O)c7)CC6)CC5)cn4)cc23)ccc1[C@@H](C)NC(=O)c1nc(C(C)(C)C)no1 [Example 119, (R)-3-(tert-butyl)-N-(1-(4-(6-(5-(4-((1-(3-(2,4-dioxotetrahydropyrimidin-1(2H)-yl)phenyl)piperidin-4-yl)methyl)piperazin-1-yl)pyridin-2-yl)-7H-pyrrolo[2,3-d]pyrimidin-4-yl)-2-methylphenyl)ethyl)-1,2,4-oxadiazole-5-carboxamide] | 1.2 nM | > 10000 nM |
| Cc1nn(C2CCN(CC3CCN(c4ccc(N5CCC(=O)NC5=O)cc4)CC3)CC2)c(C)c1-c1cc2c(-c3ccc([C@@H](C)NC(=O)c4noc(C(C)(C)C)n4)c(CO)c3)ncnc2[nH]1 [Example 120, (R)-5-(tert-butyl)-N-(1-(4-(6-(1-(1-((1-(4-(2,4-dioxotetrahydropyrimidin-1(2H)-yl)phenyl)piperidin-4-yl)methyl)piperidin-4-yl)-3,5-dimethyl-1H-pyrazol-4-yl)-7H-pyrrolo[2,3-d]pyrimidin-4-yl)-2-(hydroxymethyl)phenyl)ethyl)-1,2,4-oxadiazole-3-carboxamide] | 0.18 nM | > 10000 nM |
| Cc1cc(-c2ncnc3[nH]c(-c4c(C)nn(C5CCN(CC6CCN(c7ccc(N8CCC(=O)NC8=O)cc7)CC6)CC5)c4C)cc23)ccc1[C@@H](C)NC(=O)c1cn(C(C)(C)C)nn1 [Example 121, (R)-1-(tert-butyl)-N-(1-(4-(6-(1-(1-((1-(4-(2,4-dioxotetrahydropyrimidin-1(2H)-yl)phenyl)piperidin-4-yl)methyl)piperidin-4-yl)-3,5-dimethyl-1H-pyrazol-4-yl)-7H-pyrrolo[2,3-d]pyrimidin-4-yl)-2-methylphenyl)ethyl)-1H-1,2,3-triazole-4-carboxamide] | 0.23 nM | > 10000 nM |
